Source: article PMC11276905 (International Journal of Molecular Sciences, 2024)
Entries after “also recorded” stand apart in the source; their conditions may differ. Where two headings read alike, the source gives them in different places.

Tests used:
[1] = target: T1, isolated HNE (human neutrophil elastase) (Homo sapiens, UniProt P08246); assay: Inhibition of isolated HNE, steady-state kinetics (MeOSuc-AAPV-AMC); type: biochemical
T1 construct: immediately processed to its active form in the trans-Golgi before being targeted to azurophil granules; purchased Merck (Darmstadt, Germany) 324681
T1 sequence (P08246 30-267): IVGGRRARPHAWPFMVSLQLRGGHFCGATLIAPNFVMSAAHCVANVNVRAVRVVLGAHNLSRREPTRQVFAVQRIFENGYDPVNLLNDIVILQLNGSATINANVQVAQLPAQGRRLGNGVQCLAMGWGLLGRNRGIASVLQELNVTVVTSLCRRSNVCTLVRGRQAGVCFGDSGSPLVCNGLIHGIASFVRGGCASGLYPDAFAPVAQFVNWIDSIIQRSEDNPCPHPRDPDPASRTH
Protocol: (§1) To determine the inhibition constants of reversible inhibitors with isolated HNE and HNE in cell lysates, HNE (0.5 nM) and U937 lysates (1000 cells/µL) were incubated with serial dilutions of the compounds in assay buffer at 37 °C for ≥ 1 h. Subsequently, residual HNE activity was measured as described above and compared to the activity of uninhibited HNE. […] The inhibition curves generated were fitted to Morrisons’s equation to obtain the dissociation equilibrium constant Ki with pro-Fit (Quantum Soft, Uetikon am See, Switzerland) using a Levenberg–Marquardt algorithm.

HNE in U937 lysates = target: T2, HNE in U937 lysates (Homo sapiens, UniProt P08246); assay: Inhibition of HNE activity in U937 lysates; type: biochemical
T2 construct: the myeloid cell line U937, which can differentiate into neutrophils [25] and expresses HNE; host or cells: U937 (histiocytic lymphoma), undifferentiated
T2 sequence (P08246 30-247 limits assumed): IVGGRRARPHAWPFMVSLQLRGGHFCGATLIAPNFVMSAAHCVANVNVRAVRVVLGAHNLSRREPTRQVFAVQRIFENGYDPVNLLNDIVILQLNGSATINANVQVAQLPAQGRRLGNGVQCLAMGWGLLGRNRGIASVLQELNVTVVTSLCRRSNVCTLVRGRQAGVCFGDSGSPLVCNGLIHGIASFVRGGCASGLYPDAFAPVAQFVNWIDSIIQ
Protocol: (§2) For the quantification and characterization of HNE-like activity in cell lysates, the density of the sample cell suspension was first quantified using a CASY-1 cell counter.
as §1

[2] = target: T3, elastase-like activity (HNE) in PMN lysates (Homo sapiens, UniProt P08246); assay: Inhibition of elastase-like activity in PMN lysates; type: biochemical; settings: 1 mM, 1 h, 37 °C
T3 construct: from tissue; host or cells: neutrophil granulocytes from peripheral venous blood of healthy human donors
T3 sequence (P08246 30-247 limits assumed): T2 sequence (P08246 30-247 limits assumed)
Description: Residual erythrocytes were eliminated by hypotonic lysis.
as §2

[3] = test system: elastase-like activity in HL-60 lysates; assay: Inhibition of elastase-like activity in HL-60 lysates; type: biochemical, human; settings: 1 mM, 1 h, 37 °C
Description: as §2

HNE in U937 cells = target: T4, HNE in U937 cells (Homo sapiens, UniProt P08246); assay: Intracellular HNE inhibition in cultured U937 cells (residual activity in lysates); type: cell-based
T4 construct: the myeloid cell line U937, which can differentiate into neutrophils [25] and expresses HNE; host or cells: U937 (histiocytic lymphoma), undifferentiated
T4 sequence (P08246 30-247 limits assumed): T2 sequence (P08246 30-247 limits assumed)
Protocol: (§3) The enzymatic activity of HNE was measured using a fluorescence-based assay in 96-well black bottom plates (Corning®, 003916, New York, NY, USA). HNE (0.5 nM) or cell lysates (20 µL, ~100 PMN/µL, ~1000 U937/µL, ~5000 HL-60/µL or ~1000 HMC-1/µL) were diluted in assay buffer (200 mM TRIS HCl, 500 mM NaCl, 0.05% Tween-20, pH 8.0). […] AMC (7-Amino-4-methylcoumarin) standard curves were generated by measuring serial dilutions of the fluorophore AMC (1 µM–0 µM) in assay buffer on the same plate and used to calculate nM AMC generation from fluorescence measurements.
(§4) U937 cells were plated in sterile 96-U-well plates (92697, TPP, Trasadingen, Switzerland) at a density of 100 cells/µL in a cell culture medium (180 µL per well). Increasing concentrations of inhibitors and solvent controls were diluted in a culture medium and added (20 µL/well) to the 96-well plate 26 h, 6 h, 3 h, and 0 h before harvesting and lysing the cells (see below). Plates were kept at 37 °C, 5% CO2, and 95% humidity throughout the incubation period. […] Similarly, freshly isolated PMN were plated at 50–100 cells/µL in PBS (1 g/L glucose) and incubated for 1 h with inhibitors or controls.
(§5) For cell lysis, cells were pelleted in the microtiter plates by centrifugation (400× g, 10 min, 4 °C) and washed three times in PBS (4 °C). Washed cells were then lysed by adding lysis buffer (PBS, 1 M NaCl, 0.1% Tween-20, pH 7.4) and freeze–thawing on dry ice. Finally, lysates were centrifuged (2100× g) to remove cell debris. Enzymatic activity of HNE was determined as described above, and residual activity present after incubation with inhibitors expressed as % of matched solvent controls.

isolated HNE = target: T5, isolated HNE (Homo sapiens, UniProt P08246); assay: Formation and dissociation of the HNE/inhibitor complex (pre-steady-state kinetics); type: biochemical; settings: pre-steady-state kinetics, HNE 0.6 nM, 37 °C, mean ± SD
T5 construct: immediately processed to its active form in the trans-Golgi before being targeted to azurophil granules; purchased Merck (Darmstadt, Germany) 324681
T5 sequence (P08246 30-267): T1 sequence (P08246 30-267)
Protocol: To determine the association rates (kon) of the inhibitors, the enzymatic activity of HNE (0.6 nM) was recorded continuously in an SFM25 fluorometer (Biotek Kontron, Neufahrn, Germany) by following the cleavage of MeOSuc-AAPV-AMC (10 µM) at 37 °C. When a constant rate was established (i.e., after 1–5 min), an inhibitor was added, and the reaction followed for up to 60 min. The pseudo-first-order rate constant kobs was obtained by fitting the observed presteady-state progress curve to the integrated equation of Morrison with pro-Fit. Apparent second-order rate constants were subsequently calculated as k2/Ki = kobs/It by linear regression from several independent experiments using a range of concentrations. For reversible inhibitors, the dissociation rate koff was subsequentially calculated as koff = Ki × kon; for irreversible inhibitors, koff is ≈ zero. Finally, the halftime of the HNE/inhibitor complex formation and dissociation were calculated as t1/2,on = 0.693/(kass × It + koff) and t1/2,off = 0.693/koff, respectively.

[4] = Inhibitor stability in serum-free cell culture medium; type: physicochemical; settings: 26 h, serum-free medium (RPMI), 37 °C
Protocol: Inhibitors were prepared as above and incubated for 26 h in RPMI at 37 °C. Residual inhibitor activity was compared to the activity of freshly prepared compounds by measuring the inhibition of HNE.

U937 cells [5] = assay: LDH release from U937 cells; type: cell-based, human; settings: 1000 and 300 µM, after 26 h
Protocol: Cytotoxicity of the inhibitors was determined by analyzing the release of lactate dehydrogenase (LDH) into the cell culture medium using the LDH cytotoxicity kit II (PromoKine, Heidelberg, Germany) or the more sensitive Pierce LDH cytotoxicity assay kit (Thermo Scientific, Darmstadt, Germany) following the manufacturer’s instructions.

U937 cells [6] = assay: Proliferation of U937 cells; type: cell-based, human; settings: concentrations ≥300 µM
Protocol: U937 cells were plated in sterile 96-U-well plates (92697, TPP, Trasadingen, Switzerland) at a density of 100 cells/µL in a cell culture medium (180 µL per well). Increasing concentrations of inhibitors and solvent controls were diluted in a culture medium and added (20 µL/well) to the 96-well plate 26 h, 6 h, 3 h, and 0 h before harvesting and lysing the cells (see below). Plates were kept at 37 °C, 5% CO2, and 95% humidity throughout the incubation period.

[7] = target: T1, isolated HNE (human neutrophil elastase); assay: Inhibition of isolated HNE, steady-state kinetics (MeOSuc-AAPV-AMC); type: biochemical; settings: read-out: IC50(60min), isolated HNE; irreversible inhibitors, incubated 1 h, logistic fit, mean ± SD
HNE in mature PMN = target: T6, HNE in mature PMN (Homo sapiens, UniProt P08246); assay: Intracellular HNE inhibition in freshly isolated mature PMN; settings: read-out: IC50, HNE in PMN; 1 h incubation
T6 sequence (P08246 30-247 limits assumed): T2 sequence (P08246 30-247 limits assumed)
Protocol: Peripheral venous blood was collected from six healthy donors after informed consent (votum 018-09 of the local ethics committee), and differential blood counts were performed. Neutrophil granulocytes were isolated using the MACSxpress neutrophil isolation kit (Miltenyi Biotec, Bergisch Gladbach, Germany) following the manufacturer’s instructions. Residual erythrocytes were eliminated by hypotonic lysis. Neutrophils were resuspended in PBS with glucose (1 g/L) at a density of 50–100 cells/µL. The purity of the final cell population was analyzed by staining a smear using Pappenheim’s method and counting ≥200 cells using a light microscope.
as §3, §4, §5

Question: What does the source list for `Cl.NCCc1ccc(S(=O)(=O)F)cc1` [Pefabloc SC]?
Answer: inhibition of activity of isolated HNE ([1]; 1 mM, 1 h, 37 °C, HNE 0.5 nM): 98 ± 0.6%; inhibition of isolated HNE ([1]; at ~10^−3 M): nearly complete inhibition; inhibition of elastase-like activity in U937 lysate (HNE in U937 lysates; 1 mM, 1 h, 37 °C): 91 ± 0.6%; IC50 (HNE in U937 lysates; read-out: IC50(60min), U937 lysate, irreversible inhibitors, incubated 1 h, logistic fit, mean ± SD): 130 µM; inhibition of elastase-like activity in PMN lysate [2]: 97 ± 0.6%; inhibition of elastase-like activity in HL-60 lysate [3]: 95 ± 1%; time course of HNE inhibition in U937 cells (in words) (HNE in U937 cells; 0-26 h culture): increases during the first 6 h; also recorded: lose effectiveness over time; IC50 (HNE in U937 cells; 0 h incubation, read-out: IC50, HNE in U937 cells at 0 h): ~100 µM; inhibition of HNE in intact U937 cells (HNE in U937 cells; at ~10^−3 M): nearly complete inhibition; IC50 (HNE in U937 cells; intact U937 cells, time not specified, read-out: IC50, HNE in intact U937 cells): ~100 µM; IC50 (HNE in U937 cells; read-out: IC50, HNE in U937 cells at 6 h, 6 h incubation): ~10 µM; kon (isolated HNE): 1.0 ± 0.1 M⁻¹ s⁻¹; decrease of inhibitory activity after incubation in medium [4]: approximately 50%; LDH release from U937 cells (U937 cells [5]): 12 ± 2%; reduction of U937 cell proliferation (U937 cells [6]): 50 ± 3%; IC50 [7]: 130 µM; IC50 (HNE in mature PMN): ~100 µM
